Test results as given in PubChem BioAssay AID248 (DTP/NCI, 2004).
Values joined by “and” are separate entries in the source; they are usually repeats but may differ in a detail not shown here. Equal values may be shown once. Inconclusive results and toxic doses are left out. Rule as the data show it: active = T/C of 150% or more; inactive = T/C below 125%.

Test system: L1210 leukemia ip in BDF1 mice, survival T/C
Assay: NCI In Vivo Anticancer Drug Screen. Data for tumor model L1210 Leukemia (intraperitoneal) in B6D2F1 (BDF1) mice
Conditions: endpoint: mean survival time, higher = longer survival
Procedure, shortened: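 Each compound was tested against a transplantable tumor grown in mice. The endpoint was survival, with treated animals benchmarked against vehicle controls as a simple ratio.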

[1] = dose: 25.0 mg/kg/injection, schedule: Q04DX002 (ip), vehicle: Klucel (hydroxypropylcellulose) (HPC)
[2] = dose: 50.0 mg/kg/injection, schedule: Q04DX002 (ip), vehicle: Klucel (hydroxypropylcellulose) (HPC)
[3] = dose: 50.0 mg/kg/injection, schedule: Q04DX003 (ip), vehicle: saline with Tween-80
[4] = dose: 100.0 mg/kg/injection, schedule: Q04DX003 (ip), vehicle: saline with Tween-80
[5] = dose: 200.0 mg/kg/injection, schedule: Q04DX003 (ip), vehicle: saline with Tween-80
[6] = dose: 100.0 mg/kg/injection, schedule: Q01DX001 (ip), vehicle: saline
[7] = dose: 200.0 mg/kg/injection, schedule: Q01DX001 (ip), vehicle: saline
[8] = dose: 400.0 mg/kg/injection, schedule: Q01DX001 (ip), vehicle: saline
[9] = dose: 25.0 mg/kg/injection, schedule: Q04DX003 (ip), vehicle: saline with Tween-80
[10] = dose: 100.0 mg/kg/injection, schedule: Q01DX009 (ip), vehicle: Klucel (hydroxypropylcellulose) (HPC)
[11] = dose: 100.0 mg/kg/injection, schedule: Q04DX003 (ip), vehicle: Klucel (hydroxypropylcellulose) (HPC)
[12] = dose: 200.0 mg/kg/injection, schedule: Q04DX003 (ip), vehicle: Klucel (hydroxypropylcellulose) (HPC)
[13] = dose: 400.0 mg/kg/injection, schedule: Q04DX003 (ip), vehicle: Klucel (hydroxypropylcellulose) (HPC)
[14] = dose: 50.0 mg/kg/injection, schedule: Q01DX009 (ip), vehicle: saline with Tween-80
[15] = dose: 100.0 mg/kg/injection, schedule: Q01DX009 (ip), vehicle: saline with Tween-80
[16] = dose: 200.0 mg/kg/injection, schedule: Q01DX009 (ip), vehicle: saline with Tween-80
[17] = dose: 25.0 mg/kg/injection, schedule: Q01DX009 (ip), vehicle: saline
[18] = dose: 50.0 mg/kg/injection, schedule: Q01DX009 (ip), vehicle: saline
[19] = dose: 100.0 mg/kg/injection, schedule: Q01DX009 (ip), vehicle: saline
[20] = dose: 100.0 mg/kg/injection, schedule: Q04DX003 (ip), vehicle: saline
[21] = dose: 200.0 mg/kg/injection, schedule: Q01DX009 (ip), vehicle: saline
[22] = dose: 200.0 mg/kg/injection, schedule: Q04DX003 (ip), vehicle: saline
[23] = dose: 400.0 mg/kg/injection, schedule: Q04DX003 (ip), vehicle: saline

Measured: T/C

CCOC(=O)CNc1ccc(Cl)cc1
inactive: [1] 98 % of control and 106 % of control | [2] 102 % of control | dose: 100.0 mg/kg/injection, schedule: Q04DX002 (ip), vehicle: Klucel (hydroxypropylcellulose) (HPC) 101 % of control and 91 % of control | dose: 200.0 mg/kg/injection, schedule: Q04DX002 (ip), vehicle: Klucel (hydroxypropylcellulose) (HPC) 102 % of control

CC1(C)CC(=O)C=C(N2CCC(CCCC3CCN(C4=CC(=O)CC(C)(C)C4)CC3)CC2)C1
inactive: [3] 94 % of control | [4] 102 % of control | [5] 88 % of control

O=C(/C=C\c1ccc(Cl)cc1)OCCCCOC(=O)/C=C/c1ccc(Cl)cc1
inactive: dose: 50.0 mg/kg/injection, schedule: Q01DX001 (ip), vehicle: saline 96 % of control | [6] 93 % of control | [7] 93 % of control | [8] 93 % of control

O=C1NC(c2ccccc2)(c2ccccc2)C(=O)N1SC(Cl)(Cl)Cl
inactive: [1] 100 % of control | [2] 118 % of control

O=C1NCN(c2ccccc2)C12CCNCC2
inactive: dose: 25.0 mg/kg/injection, schedule: Q01DX009 (ip), vehicle: saline sonified 108 % of control | [9] 89 % of control | dose: 50.0 mg/kg/injection, schedule: Q01DX009 (ip), vehicle: saline sonified 98 % of control | [3] 94 % of control | dose: 100.0 mg/kg/injection, schedule: Q01DX009 (ip), vehicle: saline sonified 103 % of control | dose: 100.0 mg/kg/injection, schedule: Q04DX003 (ip), vehicle: saline sonified 95 % of control | [4] 89 % of control

CCOC(=O)C(C(=O)OCC)N(C(=O)C(Cl)Cl)c1ccccc1
inactive: dose: 100.0 mg/kg/injection, schedule: Q04DX003 (ip), vehicle: other 97 % of control | dose: 200.0 mg/kg/injection, schedule: Q04DX003 (ip), vehicle: other 96 % of control | dose: 400.0 mg/kg/injection, schedule: Q04DX003 (ip), vehicle: other 94 % of control

N#CCCCI
inactive: dose: 50.0 mg/kg/injection, schedule: Q04DX003 (ip), vehicle: acetone 96 % of control | dose: 100.0 mg/kg/injection, schedule: Q04DX003 (ip), vehicle: acetone 100 % of control | dose: 200.0 mg/kg/injection, schedule: Q04DX003 (ip), vehicle: acetone 105 % of control

CCOC(=O)C(C)Cl (stereo unspecified)
inactive: [10] 97 % of control | [11] 103 % of control | dose: 200.0 mg/kg/injection, schedule: Q01DX009 (ip), vehicle: Klucel (hydroxypropylcellulose) (HPC) 96 % of control | [12] 103 % of control | [13] 103 % of control

NC(=O)c1ccncc1
inactive: [6] 105 % of control | [7] 104 % of control | [8] 98 % of control

O=C(COc1ccc(Cl)c(Cl)c1)N(Cc1ccccc1)Cc1ccc[n+](Cc2cccc(Cl)c2S(=O)(=O)F)c1
inactive: [9] 106 % of control | [3] 96 % of control

CC1OC2CCCCC2O1 (stereo unspecified)
inactive: [14] 97 % of control | [15] 97 % of control | [16] 94 % of control

O=C(Nc1ccc(F)cc1)c1ccc(C(=O)Nc2ccc(F)cc2)cc1
inactive: [3] 91 % of control | [6] 100 % of control | [15] 100 % of control | [4] 96 % of control | [7] 96 % of control | [16] 108 % of control | [5] 96 % of control | [8] 102 % of control | dose: 400.0 mg/kg/injection, schedule: Q01DX009 (ip), vehicle: saline with Tween-80 94 % of control

NOCCCCON
inactive: [17] 98 % of control and 103 % of control | dose: 25.0 mg/kg/injection, schedule: Q04DX002 (ip), vehicle: saline 93 % of control and 97 % of control | [18] 95 % of control and 97 % of control | dose: 50.0 mg/kg/injection, schedule: Q04DX002 (ip), vehicle: saline 96 % of control and 101 % of control | dose: 50.0 mg/kg/injection, schedule: Q04DX003 (ip), vehicle: saline 98 % of control | [6] 101 % of control | [19] 100 % of control [middle of 4 runs] | dose: 100.0 mg/kg/injection, schedule: Q04DX002 (ip), vehicle: saline 93 % of control and 94 % of control | [20] 95 % of control | [7] 102 % of control | [21] 95 % of control and 102 % of control | dose: 200.0 mg/kg/injection, schedule: Q04DX002 (ip), vehicle: saline 96 % of control and 105 % of control | [22] 93 % of control | [8] 104 % of control | dose: 400.0 mg/kg/injection, schedule: Q04DX002 (ip), vehicle: saline 98 % of control and 110 % of control

CCCCCCCCCCCCCCCCCC(=O)NCCNC(=O)CCCCCCCCCCCCCCCCC
inactive: dose: 12.5 mg/kg/injection, schedule: Q04DX003 (ip), vehicle: Klucel (hydroxypropylcellulose) (HPC) 103 % of control | dose: 25.0 mg/kg/injection, schedule: Q01DX009 (ip), vehicle: Klucel (hydroxypropylcellulose) (HPC) 108 % of control | dose: 25.0 mg/kg/injection, schedule: Q04DX003 (ip), vehicle: Klucel (hydroxypropylcellulose) (HPC) 107 % of control | dose: 50.0 mg/kg/injection, schedule: Q01DX009 (ip), vehicle: Klucel (hydroxypropylcellulose) (HPC) 104 % of control | dose: 50.0 mg/kg/injection, schedule: Q04DX003 (ip), vehicle: Klucel (hydroxypropylcellulose) (HPC) 104 % of control | [10] 104 % of control | [11] 90 % of control | dose: 150.0 mg/kg/injection, schedule: Q01DX009 (ip), vehicle: Klucel (hydroxypropylcellulose) (HPC) 88 % of control | [12] 96 % of control

Cn1c(C(N)=O)cc(=O)n1-c1ccc([N+](=O)[O-])cc1
inactive: [11] 101 % of control | [12] 97 % of control | [13] 101 % of control

O=[N+]([O-])c1ccc(NC(=S)Nc2cc([N+](=O)[O-])ccc2Cl)cc1
inactive: [14] 98 % of control | [15] 91 % of control | [16] 91 % of control

O=C(NC(CBr)CCCBr)c1ccc([N+](=O)[O-])cc1 (stereo unspecified)
inactive: [4] 105 % of control | [5] 94 % of control | dose: 400.0 mg/kg/injection, schedule: Q04DX003 (ip), vehicle: saline with Tween-80 94 % of control

CCCCCCCCCC1=NN(c2cccc(S(=O)(=O)N(C)c3ccccc3)c2)C(=O)C1
inactive: [20] 94 % of control | [22] 94 % of control | [23] 91 % of control

CC1(C)CC(=O)c2ccccc21
inactive: [17] 101 % of control | [18] 94 % of control and 109 % of control | [19] 101 % of control and 102 % of control | [20] 100 % of control | [21] 104 % of control | [22] 96 % of control | [23] 102 % of control
